Structures can show the parent of a compound that is named as a salt.
Experiments:
[1] = DPPH radical scavenging capacity; details: for Radical scavenging capacity: DPPH, 20 min, absorbance at 517 nm
Method: The Compound is tested for the radical scavenging capacity against the stabilized radical of 1,1-diphenyl-2-picrylhydro radicals (DPPH).
The compound of Example 1 is dissolved in ethanol to the concentrations ranging from 10^−2 to 10^−5 M.
The test is carried out in accordance with the procedure of Blois, M. S., Nature: 181, 1199 […].
Added to 300 μl of a sample solution is 2.7 ml of a 0.011 mM ethanol solution of DPPH or a stabilized radical, and the solution is stirred and left on standing for 20 min., followed by measurement of absorbance at a wavelength of 517 nm. The radical scavenging rate of the sample solution is determined by the following equation:
Radical scavenging rate (%)=(absorbance of control−absorbance of the sample solution[…])×100

[2] = system: mouse auricule inflammation; assay: Inflammation model of mouse auricule (PMA-induced edema); assay type: in vivo; details: for Inhibition rate (%): auricule edematization, against control (methanol), 0.5% solution topically, 24 hours
Method: The compound of Example 1 is dissolved in ethanol to the concentration of 0.5%.
6-Weeks aged male mice of ddy strain as procured from SLC CO. are subjected to the test.
In order to cause inflammation, a solution (100 μg/mL) of phorbol 12-myristate 13-acetate (PMA) in acetone is applied in 10-μl portions (20 μl in total per mouse) onto the inside and outside of right-hand auricule of each mouse in such a manner that the solution may extend over the whole auricule. 24 Hours after causing inflammation, the thickness of right-hand auricule of each mouse is measured with use of a dial thickness gauge, and the edematization rate is calculated based on the thickness before causing inflammation.
The test substance is applied in 10-μl portions (20 μl in total per mouse) onto the inside and outside of right-hand auricule of each mouse.

Cc1c(C)c2c(c(C)c1OC(=O)/C=C\C(=O)OC1=C(O)[C@@H]([C@@H](O)CO)OC1=O)CCC(C)(CCCC(C)CCCC(C)CCCC(C)C)O2 (stereo partly drawn) [Example 1, α-Tocopheryl L-Ascorbic Acid-2-O-Maleate (or Fumarate)]
IC50 ([1]; DPPH radical): ~560 µM | Radical scavenging capacity ([1]; final concn. 10 μM): 5.2% | Radical scavenging capacity ([1]; final concn. 100 μM): 10.8% | Radical scavenging capacity ([1]; final concn. 300 μM): 29.5% | Radical scavenging capacity ([1]; final concn. 1000 μM): 61.4% | Inhibition rate (%) ([2]; listed as Compound of Example 1): 83.8% | Inhibition rate (%) ([2]; listed as the Compound): 83.3% | Edematization rate (%) ([2]; male ddy mice, PMA on right auricule, 24 hours after causing inflammation, 0.5% solution applied topically, 20 μl per mouse, mean ± S.E. (n = 8)): 26.9 ± 6.2 %
